# Test results taken from PubChem BioAssay (NCI).
#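 Interpolation was linear, between the two tested concentrations surrounding the appropriate level; five concentrations were tested over 48 hours in 96-well plates. The concentration for full growth arrest is given as TGI.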
# Tested on: 786-0 renal
# Experiment: NCI anticancer screen, dose series, 48 h
row,Structure (SMILES),TGI
1,C/C=C/[C@@H](C(=O)OC)N1C(=O)c2ccccc2[C@H]1O,> 100 µM
2,COC(=O)C(Cc1ccc2c(c1)CCCC2)Cc1cc2c(cc1C(O)OC)CCC2 (stereo not drawn),> 100 µM
3,S=C1N=C2C(=N1)n1c3c(c4ccccc41)CCCC23 (stereo not drawn),32.9 µM

# Tested on: A498 renal
# Experiment: NCI anticancer screen, dose series, 48 h
row,Structure (SMILES),TGI
1,C/C=C/[C@@H](C(=O)OC)N1C(=O)c2ccccc2[C@H]1O,> 100 µM
2,COC(=O)C(Cc1ccc2c(c1)CCCC2)Cc1cc2c(cc1C(O)OC)CCC2 (stereo not drawn),> 100 µM
3,S=C1N=C2C(=N1)n1c3c(c4ccccc41)CCCC23 (stereo not drawn),> 100 µM

# Tested on: A549 NSCLC
# Experiment: NCI anticancer screen, dose series, 48 h
row,Structure (SMILES),TGI
1,C/C=C/[C@@H](C(=O)OC)N1C(=O)c2ccccc2[C@H]1O,> 100 µM
2,COC(=O)C(Cc1ccc2c(c1)CCCC2)Cc1cc2c(cc1C(O)OC)CCC2 (stereo not drawn),> 100 µM
3,S=C1N=C2C(=N1)n1c3c(c4ccccc41)CCCC23 (stereo not drawn),> 100 µM

# Tested on: ACHN renal
# Experiment: NCI anticancer screen, dose series, 48 h
row,Structure (SMILES),TGI
1,C/C=C/[C@@H](C(=O)OC)N1C(=O)c2ccccc2[C@H]1O,> 100 µM
2,COC(=O)C(Cc1ccc2c(c1)CCCC2)Cc1cc2c(cc1C(O)OC)CCC2 (stereo not drawn),> 100 µM
3,S=C1N=C2C(=N1)n1c3c(c4ccccc41)CCCC23 (stereo not drawn),> 100 µM

# Tested on: BT-549 breast
# Experiment: NCI anticancer screen, dose series, 48 h
row,Structure (SMILES),TGI
1,C/C=C/[C@@H](C(=O)OC)N1C(=O)c2ccccc2[C@H]1O,> 100 µM
2,COC(=O)C(Cc1ccc2c(c1)CCCC2)Cc1cc2c(cc1C(O)OC)CCC2 (stereo not drawn),> 100 µM
3,S=C1N=C2C(=N1)n1c3c(c4ccccc41)CCCC23 (stereo not drawn),> 100 µM

# Tested on: CAKI-1 renal
# Experiment: NCI anticancer screen, dose series, 48 h
row,Structure (SMILES),TGI
1,C/C=C/[C@@H](C(=O)OC)N1C(=O)c2ccccc2[C@H]1O,> 100 µM
2,COC(=O)C(Cc1ccc2c(c1)CCCC2)Cc1cc2c(cc1C(O)OC)CCC2 (stereo not drawn),> 100 µM
3,S=C1N=C2C(=N1)n1c3c(c4ccccc41)CCCC23 (stereo not drawn),> 100 µM

# Tested on: CCRF-CEM leukemia
# Experiment: NCI anticancer screen, dose series, 48 h
row,Structure (SMILES),TGI
1,C/C=C/[C@@H](C(=O)OC)N1C(=O)c2ccccc2[C@H]1O,> 100 µM
2,COC(=O)C(Cc1ccc2c(c1)CCCC2)Cc1cc2c(cc1C(O)OC)CCC2 (stereo not drawn),> 100 µM
3,S=C1N=C2C(=N1)n1c3c(c4ccccc41)CCCC23 (stereo not drawn),> 100 µM

# Tested on: COLO 205 colon
# Experiment: NCI anticancer screen, dose series, 48 h
row,Structure (SMILES),TGI
1,C/C=C/[C@@H](C(=O)OC)N1C(=O)c2ccccc2[C@H]1O,> 100 µM
2,COC(=O)C(Cc1ccc2c(c1)CCCC2)Cc1cc2c(cc1C(O)OC)CCC2 (stereo not drawn),> 100 µM
3,S=C1N=C2C(=N1)n1c3c(c4ccccc41)CCCC23 (stereo not drawn),> 100 µM

# Tested on: DU-145 prostate
# Experiment: NCI anticancer screen, dose series, 48 h
row,Structure (SMILES),TGI
1,C/C=C/[C@@H](C(=O)OC)N1C(=O)c2ccccc2[C@H]1O,> 100 µM
2,COC(=O)C(Cc1ccc2c(c1)CCCC2)Cc1cc2c(cc1C(O)OC)CCC2 (stereo not drawn),> 100 µM
3,S=C1N=C2C(=N1)n1c3c(c4ccccc41)CCCC23 (stereo not drawn),> 100 µM

# Tested on: EKVX NSCLC
# Experiment: NCI anticancer screen, dose series, 48 h
row,Structure (SMILES),TGI
1,C/C=C/[C@@H](C(=O)OC)N1C(=O)c2ccccc2[C@H]1O,> 100 µM
2,COC(=O)C(Cc1ccc2c(c1)CCCC2)Cc1cc2c(cc1C(O)OC)CCC2 (stereo not drawn),> 100 µM
3,S=C1N=C2C(=N1)n1c3c(c4ccccc41)CCCC23 (stereo not drawn),> 100 µM

# Tested on: HCC-2998 colon
# Experiment: NCI anticancer screen, dose series, 48 h
row,Structure (SMILES),TGI
1,C/C=C/[C@@H](C(=O)OC)N1C(=O)c2ccccc2[C@H]1O,> 100 µM
2,COC(=O)C(Cc1ccc2c(c1)CCCC2)Cc1cc2c(cc1C(O)OC)CCC2 (stereo not drawn),> 100 µM
3,S=C1N=C2C(=N1)n1c3c(c4ccccc41)CCCC23 (stereo not drawn),> 100 µM

# Tested on: HCT-116 colon
# Experiment: NCI anticancer screen, dose series, 48 h
row,Structure (SMILES),TGI
1,C/C=C/[C@@H](C(=O)OC)N1C(=O)c2ccccc2[C@H]1O,> 100 µM
2,COC(=O)C(Cc1ccc2c(c1)CCCC2)Cc1cc2c(cc1C(O)OC)CCC2 (stereo not drawn),> 100 µM
3,S=C1N=C2C(=N1)n1c3c(c4ccccc41)CCCC23 (stereo not drawn),> 100 µM

# Tested on: HCT-15 colon
# Experiment: NCI anticancer screen, dose series, 48 h
row,Structure (SMILES),TGI
1,C/C=C/[C@@H](C(=O)OC)N1C(=O)c2ccccc2[C@H]1O,> 100 µM
2,COC(=O)C(Cc1ccc2c(c1)CCCC2)Cc1cc2c(cc1C(O)OC)CCC2 (stereo not drawn),> 100 µM
3,S=C1N=C2C(=N1)n1c3c(c4ccccc41)CCCC23 (stereo not drawn),> 100 µM

# Tested on: HL-60(TB) leukemia
# Experiment: NCI anticancer screen, dose series, 48 h
row,Structure (SMILES),TGI
1,C/C=C/[C@@H](C(=O)OC)N1C(=O)c2ccccc2[C@H]1O,> 100 µM
2,COC(=O)C(Cc1ccc2c(c1)CCCC2)Cc1cc2c(cc1C(O)OC)CCC2 (stereo not drawn),56.9 µM
3,S=C1N=C2C(=N1)n1c3c(c4ccccc41)CCCC23 (stereo not drawn),> 100 µM

# Tested on: HOP-62 NSCLC
# Experiment: NCI anticancer screen, dose series, 48 h
row,Structure (SMILES),TGI
1,C/C=C/[C@@H](C(=O)OC)N1C(=O)c2ccccc2[C@H]1O,> 100 µM
2,COC(=O)C(Cc1ccc2c(c1)CCCC2)Cc1cc2c(cc1C(O)OC)CCC2 (stereo not drawn),> 100 µM
3,S=C1N=C2C(=N1)n1c3c(c4ccccc41)CCCC23 (stereo not drawn),> 100 µM

# Tested on: HOP-92 NSCLC
# Experiment: NCI anticancer screen, dose series, 48 h
row,Structure (SMILES),TGI
1,C/C=C/[C@@H](C(=O)OC)N1C(=O)c2ccccc2[C@H]1O,> 100 µM
2,COC(=O)C(Cc1ccc2c(c1)CCCC2)Cc1cc2c(cc1C(O)OC)CCC2 (stereo not drawn),> 100 µM
3,S=C1N=C2C(=N1)n1c3c(c4ccccc41)CCCC23 (stereo not drawn),> 100 µM

# Tested on: HS 578T breast
# Experiment: NCI anticancer screen, dose series, 48 h
row,Structure (SMILES),TGI
1,C/C=C/[C@@H](C(=O)OC)N1C(=O)c2ccccc2[C@H]1O,> 100 µM
2,COC(=O)C(Cc1ccc2c(c1)CCCC2)Cc1cc2c(cc1C(O)OC)CCC2 (stereo not drawn),> 100 µM
3,S=C1N=C2C(=N1)n1c3c(c4ccccc41)CCCC23 (stereo not drawn),> 100 µM

# Tested on: HT29 colon
# Experiment: NCI anticancer screen, dose series, 48 h
row,Structure (SMILES),TGI
1,C/C=C/[C@@H](C(=O)OC)N1C(=O)c2ccccc2[C@H]1O,> 100 µM
2,COC(=O)C(Cc1ccc2c(c1)CCCC2)Cc1cc2c(cc1C(O)OC)CCC2 (stereo not drawn),> 100 µM
3,S=C1N=C2C(=N1)n1c3c(c4ccccc41)CCCC23 (stereo not drawn),> 100 µM

# Tested on: IGROV1 ovarian
# Experiment: NCI anticancer screen, dose series, 48 h
row,Structure (SMILES),TGI
1,C/C=C/[C@@H](C(=O)OC)N1C(=O)c2ccccc2[C@H]1O,> 100 µM
2,COC(=O)C(Cc1ccc2c(c1)CCCC2)Cc1cc2c(cc1C(O)OC)CCC2 (stereo not drawn),> 100 µM
3,S=C1N=C2C(=N1)n1c3c(c4ccccc41)CCCC23 (stereo not drawn),> 100 µM

# Tested on: K-562 leukemia
# Experiment: NCI anticancer screen, dose series, 48 h
row,Structure (SMILES),TGI
1,C/C=C/[C@@H](C(=O)OC)N1C(=O)c2ccccc2[C@H]1O,> 100 µM
2,COC(=O)C(Cc1ccc2c(c1)CCCC2)Cc1cc2c(cc1C(O)OC)CCC2 (stereo not drawn),> 100 µM
3,S=C1N=C2C(=N1)n1c3c(c4ccccc41)CCCC23 (stereo not drawn),> 100 µM

# Tested on: KM12 colon
# Experiment: NCI anticancer screen, dose series, 48 h
row,Structure (SMILES),TGI
1,C/C=C/[C@@H](C(=O)OC)N1C(=O)c2ccccc2[C@H]1O,> 100 µM
2,COC(=O)C(Cc1ccc2c(c1)CCCC2)Cc1cc2c(cc1C(O)OC)CCC2 (stereo not drawn),> 100 µM
3,S=C1N=C2C(=N1)n1c3c(c4ccccc41)CCCC23 (stereo not drawn),> 100 µM

# Tested on: LOX IMVI melanoma
# Experiment: NCI anticancer screen, dose series, 48 h
row,Structure (SMILES),TGI
1,C/C=C/[C@@H](C(=O)OC)N1C(=O)c2ccccc2[C@H]1O,> 100 µM
2,COC(=O)C(Cc1ccc2c(c1)CCCC2)Cc1cc2c(cc1C(O)OC)CCC2 (stereo not drawn),> 100 µM
3,S=C1N=C2C(=N1)n1c3c(c4ccccc41)CCCC23 (stereo not drawn),35.6 µM

# Tested on: M14 melanoma
# Experiment: NCI anticancer screen, dose series, 48 h
row,Structure (SMILES),TGI
1,C/C=C/[C@@H](C(=O)OC)N1C(=O)c2ccccc2[C@H]1O,> 100 µM
2,COC(=O)C(Cc1ccc2c(c1)CCCC2)Cc1cc2c(cc1C(O)OC)CCC2 (stereo not drawn),> 100 µM
3,S=C1N=C2C(=N1)n1c3c(c4ccccc41)CCCC23 (stereo not drawn),> 100 µM

# Tested on: MALME-3M melanoma
# Experiment: NCI anticancer screen, dose series, 48 h
row,Structure (SMILES),TGI
1,C/C=C/[C@@H](C(=O)OC)N1C(=O)c2ccccc2[C@H]1O,> 100 µM
2,COC(=O)C(Cc1ccc2c(c1)CCCC2)Cc1cc2c(cc1C(O)OC)CCC2 (stereo not drawn),> 100 µM
3,S=C1N=C2C(=N1)n1c3c(c4ccccc41)CCCC23 (stereo not drawn),> 100 µM

# Tested on: MCF7 breast
# Experiment: NCI anticancer screen, dose series, 48 h
row,Structure (SMILES),TGI
1,C/C=C/[C@@H](C(=O)OC)N1C(=O)c2ccccc2[C@H]1O,> 100 µM
2,COC(=O)C(Cc1ccc2c(c1)CCCC2)Cc1cc2c(cc1C(O)OC)CCC2 (stereo not drawn),65.1 µM
3,S=C1N=C2C(=N1)n1c3c(c4ccccc41)CCCC23 (stereo not drawn),63.1 µM

# Tested on: MDA-MB-231 breast
# Experiment: NCI anticancer screen, dose series, 48 h
row,Structure (SMILES),TGI
1,C/C=C/[C@@H](C(=O)OC)N1C(=O)c2ccccc2[C@H]1O,> 100 µM
2,COC(=O)C(Cc1ccc2c(c1)CCCC2)Cc1cc2c(cc1C(O)OC)CCC2 (stereo not drawn),> 100 µM
3,S=C1N=C2C(=N1)n1c3c(c4ccccc41)CCCC23 (stereo not drawn),> 100 µM

# Tested on: MDA-MB-435
# Experiment: NCI anticancer screen, dose series, 48 h
row,Structure (SMILES),TGI
1,C/C=C/[C@@H](C(=O)OC)N1C(=O)c2ccccc2[C@H]1O,> 100 µM
2,COC(=O)C(Cc1ccc2c(c1)CCCC2)Cc1cc2c(cc1C(O)OC)CCC2 (stereo not drawn),> 100 µM
3,S=C1N=C2C(=N1)n1c3c(c4ccccc41)CCCC23 (stereo not drawn),> 100 µM

# Tested on: MDA-N
# Experiment: NCI anticancer screen, dose series, 48 h
row,Structure (SMILES),TGI
1,C/C=C/[C@@H](C(=O)OC)N1C(=O)c2ccccc2[C@H]1O,> 100 µM
2,COC(=O)C(Cc1ccc2c(c1)CCCC2)Cc1cc2c(cc1C(O)OC)CCC2 (stereo not drawn),> 100 µM
3,S=C1N=C2C(=N1)n1c3c(c4ccccc41)CCCC23 (stereo not drawn),> 100 µM

# Tested on: MOLT-4 leukemia
# Experiment: NCI anticancer screen, dose series, 48 h
row,Structure (SMILES),TGI
1,C/C=C/[C@@H](C(=O)OC)N1C(=O)c2ccccc2[C@H]1O,> 100 µM
2,COC(=O)C(Cc1ccc2c(c1)CCCC2)Cc1cc2c(cc1C(O)OC)CCC2 (stereo not drawn),> 100 µM
3,S=C1N=C2C(=N1)n1c3c(c4ccccc41)CCCC23 (stereo not drawn),> 100 µM

# Tested on: NCI-H226 lung
# Experiment: NCI anticancer screen, dose series, 48 h
row,Structure (SMILES),TGI
1,C/C=C/[C@@H](C(=O)OC)N1C(=O)c2ccccc2[C@H]1O,> 100 µM
